The test system of experiment [1] is AML. To be noted: patients; cited from earlier work.
Experiment [2] has as its system OCI-AML 3, Kasumi-1 and APL NB4 cells. Description: Clonogenic growth of AML cell lines in the presence or absence of stroma. It is filed as cell-based. To be noted: presence or absence of stroma. As to the method:
The BM stroma, which expresses inducibly high levels of CYP26, metabolically inactivates ATRA and provides a protected environment for AML cancer stem cells. Synthetic, CYP26-resistant RARα agonists, such as IRX5183 and AM80, should be able to bypass stroma-mediated protection of AML cells and differentiate the cancer stem cells resident in the protected environment of bone marrow niche. To test these hypotheses, clonogenic growth experiments were conducted in the non-APL AML cell lines OCI-AML 3 and Kasumi-1 and APL NB4 cells, which were treated with ATRA, IRX5183, and AM80 in the presence or absence of stroma.

Experiment [3] deals with non-APL AML cells. To be noted: in vitro; cited from earlier work.

As to `CC1=C(/C=C/C(C)=C/C=C/C(C)=C/C(=O)O)C(C)(C)CCC1` [ATRA, All-trans retinoic acid], the clinical effectiveness entry in experiment [1] was “clinically ineffective”. Also, in experiment [2], the clonogenic growth entry is recorded as “inhibited clonogenic growth only in the absence of stroma”. Further, the differentiation and apoptosis result in experiment [3] was “causes terminal differentiation and apoptosis”.
